Assay results taken from PubChem BioAssay AID1918957 (Molecular Pharmacology Branch, DTP, NCI, 2023).

Test system: NCI-H1876 complex spheroid viability
Assay: Anticancer human tumor NCI-H1876 cell line growth inhibition [LSD1];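 further: spheroids exposed to compounds for one week before readout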;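 on viability, T/C: 100% = DMSO vehicle-treated spheroids so lower means fewer viable cells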
Details: for IC50: curve of first compound; for viability, T/C: stronger effect = lower value
Method in brief: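 Multicellular complex spheroids of tumor cells with human endothelial cells (HUVEC) and mesenchymal stem cells; the LSD1 inhibitor iadademstat was combined with standard-of-care or investigational agents. Top concentration at or near clinical Cmax, half-log dilutions; final DMSO ≤0.25%.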

**Q.** How did the IC50 (second compound 0.1 µM) turn out when `CC1COCCN1c1cc(-c2ccnn2C)c2ccnc(-c3ccn[nH]3)c2n1` (stereo not given) + NC1CCC(NC2CC2c2ccccc2)CC1 was run?
**A.** Its IC50 is 0.0199 µM.

**Q.** What about the IC50 (second compound 0.316 µM) of the same molecule?
**A.** Its IC50 is 0.0219 µM.

**Q.** And the IC50 (second compound 1 µM)?
**A.** The IC50 was 0.0191 µM.

**Q.** What about the IC50 (second compound 3.16 µM) of the same molecule?
**A.** The IC50 was 0.0187 µM.

**Q.** What about the IC50 (second compound 10 µM) of the same molecule?
**A.** The IC50 was 0.00968 µM.

**Q.** And the viability, T/C (second compound 0.1 µM, first compound 0.00316 µM)?
**A.** The viability, T/C was 86.9%.

**Q.** What about the viability, T/C (second compound 0.1 µM, first compound 0.01 µM) of the same molecule?
**A.** The viability, T/C was 70.5%.

**Q.** What about the viability, T/C (second compound 0.1 µM, first compound 0.0316 µM) of the same molecule?
**A.** Its viability, T/C is 34.9%.

**Q.** And the viability, T/C (second compound 0.1 µM, first compound 0.1 µM)?
**A.** Its viability, T/C is 25.3%.

**Q.** What about the viability, T/C (second compound 0.1 µM, first compound 0.316 µM) of the same molecule?
**A.** The viability, T/C was 23.4%.

**Q.** What about the viability, T/C (second compound 0.1 µM, first compound 1 µM) of the same molecule?
**A.** Its viability, T/C is 12.1%.

**Q.** What about the viability, T/C (second compound 0.316 µM, first compound 0.00316 µM) of the same molecule?
**A.** The viability, T/C was 83.5%.

**Q.** And the viability, T/C (second compound 0.316 µM, first compound 0.01 µM)?
**A.** The viability, T/C was 79.7%.

**Q.** What about the viability, T/C (second compound 0.316 µM, first compound 0.0316 µM) of the same molecule?
**A.** Its viability, T/C is 35.7%.

**Q.** What about the viability, T/C (second compound 0.316 µM, first compound 0.1 µM) of the same molecule?
**A.** The viability, T/C was 28.7%.

**Q.** What about the viability, T/C (second compound 0.316 µM, first compound 0.316 µM) of the same molecule?
**A.** Its viability, T/C is 11%.

**Q.** And the viability, T/C (second compound 0.316 µM, first compound 1 µM)?
**A.** The viability, T/C was 21.8%.

**Q.** And the viability, T/C (second compound 1 µM, first compound 0.00316 µM)?
**A.** Its viability, T/C is 80.5%.

**Q.** And the viability, T/C (second compound 1 µM, first compound 0.01 µM)?
**A.** Its viability, T/C is 68.3%.

**Q.** And the viability, T/C (second compound 1 µM, first compound 0.0316 µM)?
**A.** Its viability, T/C is 35.9%.

**Q.** What about the viability, T/C (second compound 1 µM, first compound 0.1 µM) of the same molecule?
**A.** Its viability, T/C is 15.2%.

**Q.** What about the viability, T/C (second compound 1 µM, first compound 0.316 µM) of the same molecule?
**A.** Its viability, T/C is 11.6%.

**Q.** And the viability, T/C (second compound 1 µM, first compound 1 µM)?
**A.** The viability, T/C was 12.7%.

**Q.** And the viability, T/C (second compound 3.16 µM, first compound 0.00316 µM)?
**A.** The viability, T/C was 77.4%.

**Q.** What about the viability, T/C (second compound 3.16 µM, first compound 0.01 µM) of the same molecule?
**A.** The viability, T/C was 66.8%.

**Q.** And the viability, T/C (second compound 3.16 µM, first compound 0.0316 µM)?
**A.** The viability, T/C was 36%.

**Q.** And the viability, T/C (second compound 3.16 µM, first compound 0.1 µM)?
**A.** Its viability, T/C is 16%.

**Q.** And the viability, T/C (second compound 3.16 µM, first compound 0.316 µM)?
**A.** The viability, T/C was 12.4%.

**Q.** And the viability, T/C (second compound 3.16 µM, first compound 1 µM)?
**A.** The viability, T/C was 12.7%.

**Q.** What about the viability, T/C (second compound 10 µM, first compound 0.00316 µM) of the same molecule?
**A.** Its viability, T/C is 64.5%.

**Q.** What about the viability, T/C (second compound 10 µM, first compound 0.01 µM) of the same molecule?
**A.** The viability, T/C was 50.2%.

**Q.** What about the viability, T/C (second compound 10 µM, first compound 0.0316 µM) of the same molecule?
**A.** The viability, T/C was 31.1%.

**Q.** And the viability, T/C (second compound 10 µM, first compound 0.1 µM)?
**A.** Its viability, T/C is 19.9%.

**Q.** What about the viability, T/C (second compound 10 µM, first compound 0.316 µM) of the same molecule?
**A.** Its viability, T/C is 16.7%.

**Q.** And the viability, T/C (second compound 10 µM, first compound 1 µM)?
**A.** The viability, T/C was 11.4%.
